Laboratory results taken from patent US10167279B2 (NOVARTIS AG, priority 2014, dated 2019).

Molecular target: C-Raf FL (Homo sapiens (Human), UniProt P04049, Y340E/Y341E)
Assay: In vitro Raf activity determination (Alpha Screen, phospho-MEK), C-Raf FL (full length, Y340E/Y341E)
Type: biochemical
Settings: ATP 1 μM; 60 min pre-incubation; 1 hour reaction; column head does not say FL or TR
Excerpt: The activity of a compound according to the present invention can be assessed by well-known in vitro & in vivo methods. Raf inhibition data provided herein was obtained using the following procedures.
Sf9 cells co-expressing both proteins were lysed and subjected to immobilized nickel chromatography and eluted with Imidazole. A second column (StrepII binding column) was used and eluted with desthiobiotin. Protein Tags were removed using Prescission enzyme and the protein was further purified using a flowthrough step to remove tags.
C-Raf TR refers to a truncated C-Raf protein, a Δ1-324 deletion mutant. C-Raf FL refers to the full-length C-Raf protein.
Full length MEK1 with an inactivating K97R ATP binding site mutation is utilized as a RAF substrate. The MEK1 cDNA was subcloned with an N-terminal (his)6 tag into a vector for E. Coli expression. The MEK1 substrate was purified from E. Coli lysate by nickel affinity chromatography followed by anion exchange. The final MEK1 preparation was biotinylated (Pierce EZ-Link Sulfo-NHS-LC-Biotin) and concentrated.
Assay protocol: Raf and biotinylated Mek (kinase dead) were combined at 2× final concentrations in assay buffer (50 mM Tris, pH 7.5, 15 mM MgCl2, 0.01% BSA and 1 mM DTT) and dispensed […] per well in assay plates (Greiner white 384 well assay plates #781207) containing […] of 40× of a Raf kinase inhibitor test compound diluted in 100% DMSO. The plate was incubated for 60 minutes at room temperature. […] The reactions were stopped and the phosphorylated product was measured using a rabbit anti-p-MEK (Cell Signaling, #9121) antibody and the Alpha Screen IgG (ProteinA) detection Kit (PerkinElmer #6760617R), by the addition of […] to the well of a mixture of the antibody (1:2000 dilution) and detection beads (1:2000 dilution of both beads) in Stop/bead buffer (25 mM EDTA, 50 mM Tris, pH 7.5, 0.01% Tween20). The additions were carried out under dark conditions to protect the detection beads from light. A lid was placed on top of the plate and incubated for 1 hour at room temperature, after which the luminescence was read on a PerkinElmer Envision instrument. The concentration of each compound for 50% inhibition (IC50) was calculated by non-linear regression using XL Fit data analysis software.

C-Raf FL, sequence (P04049 whole entry Y340E/Y341E): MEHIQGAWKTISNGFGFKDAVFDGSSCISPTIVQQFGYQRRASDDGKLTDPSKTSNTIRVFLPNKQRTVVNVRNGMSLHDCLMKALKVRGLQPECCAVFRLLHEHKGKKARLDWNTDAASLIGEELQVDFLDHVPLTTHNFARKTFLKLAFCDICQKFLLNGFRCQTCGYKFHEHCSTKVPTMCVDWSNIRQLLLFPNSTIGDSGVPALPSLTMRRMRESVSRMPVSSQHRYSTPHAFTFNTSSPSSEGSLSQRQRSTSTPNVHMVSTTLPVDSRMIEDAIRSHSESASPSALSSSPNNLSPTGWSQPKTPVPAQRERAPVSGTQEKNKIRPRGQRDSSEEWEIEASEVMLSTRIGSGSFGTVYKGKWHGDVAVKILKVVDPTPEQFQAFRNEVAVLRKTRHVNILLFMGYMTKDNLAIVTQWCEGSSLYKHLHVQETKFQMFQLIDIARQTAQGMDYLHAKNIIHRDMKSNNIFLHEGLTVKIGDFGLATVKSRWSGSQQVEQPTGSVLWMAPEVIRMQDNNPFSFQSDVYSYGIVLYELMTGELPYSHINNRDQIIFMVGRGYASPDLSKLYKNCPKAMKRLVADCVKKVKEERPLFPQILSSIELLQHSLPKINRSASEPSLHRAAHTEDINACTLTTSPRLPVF
C-Raf FL, sequence (P63104 whole entry partner): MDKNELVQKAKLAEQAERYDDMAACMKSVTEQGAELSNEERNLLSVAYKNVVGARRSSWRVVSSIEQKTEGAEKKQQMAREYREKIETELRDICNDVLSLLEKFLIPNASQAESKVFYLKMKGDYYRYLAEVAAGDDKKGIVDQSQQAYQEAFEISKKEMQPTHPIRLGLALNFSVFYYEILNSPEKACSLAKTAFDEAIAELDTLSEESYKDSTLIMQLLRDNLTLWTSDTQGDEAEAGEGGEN

IC50 [nM] | SMILES
4.35 | Cc1ccc(NC(=O)c2ccnc(C(F)(F)F)c2)cc1-c1cc(C2(F)COC2)cc(OCCO)n1 [Example 47, N-(3-(4-(3-fluorooxetan-3-yl)-6-(2-hydroxyethoxy)pyridin-2-yl)-4-methylphenyl)-2-(trifluoromethyl)isonicotin-amide]
0.04 | CCOc1nnc(-c2cc(NC(=O)c3cc(C(F)(F)F)cnn3)ccc2C)cc1C1CCOCC1 [Example 240, N-(3-(6-ethoxy-5-(tetrahydro-2H-pyran-4-yl)pyridazin-3-yl)-4-methylphenyl)-5-(trifluoromethyl) pyridazine-3-carboxamide]
0.7 | COC1(c2cc(-c3cc(NC(=O)c4cccc(C(F)(F)F)c4)cnc3C)cc(OCCO)n2)COC1 [Example 160, N-(2′-(2-hydroxyethoxy)-6′-(3-methoxyoxetan-3-yl)-2-methyl-[3,4′-bipyridin]-5-yl)-3-(trifluoromethyl)benzamide]
2 | Cc1ccc(NC(=O)c2ccc(CN)c(C(F)(F)F)c2)cc1-c1cccc(C2COC2)c1 [Example 5, 4-(aminomethyl)-N-(6-methyl-3′-(oxetan-3-yl)-[1,1′-biphenyl]-3-yl)-3-(trifluoromethyl)benzamide]
0.02 | Cc1ccc(NC(=O)c2ccnc(C(F)(F)F)c2)cc1-c1cc(C2CCOCC2)c(N[C@@H](C)CO)nn1 [Example 309, (S)-N-(3-(6-((1-hydroxypropan-2-yl)amino)-5-(tetrahydro-2H-pyran-4-yl)pyridazin-3-yl)-4-methylphenyl)-2-(trifluoromethyl) isonicotinamide]
2.19 | Cc1ccc(NC(=O)c2ccnc(C(C)(C)C#N)c2)cc1-c1cc(C2(O)COC2)cc(C2(F)COC2)c1 [Example 138, 2-(2-cyanopropan-2-yl)-N-(3′-(3-fluorooxetan-3-yl)-5′-(3-hydroxyoxetan-3-yl)-6-methyl-[1,1′-biphenyl]-3-yl)isonicotinamide]
0.3 | CCOc1nnc(-c2cc(NC(=O)c3ccnc(C(F)(F)F)c3)cnc2C)cc1C1CCOCC1 [Example 236, N-(5-(6-ethoxy-5-(tetrahydro-2H-pyran-4-yl)pyridazin-3-yl)-6-methylpyridin-3-yl)-2-(trifluoromethyl) isonicotinamide]
0.331 | Cc1ccc(NC(=O)c2ccnc(C(F)(F)F)c2)cc1-c1cc(OCCO)nc(C2(O)CCOCC2)c1 [Example 305, N-(3-(2-(2-hydroxyethoxy)-6-(4-hydroxytetra-hydro-2H-pyran-4-yl)pyridin-4-yl)-4-methylphenyl)-2-(trifluoro-methyl) isonicotinamide]
0.7 | Cc1nc2cc(C3CCOCC3)cc(-c3cc(NC(=O)c4ccnc(C(F)(F)F)c4)ccc3C)c2[nH]1 [Example 220, N-(4-methyl-3-(2-methyl-5-(tetrahydro-2H-pyran-4-yl)-1H-benzo[d]imidazol-7-yl)phenyl)-2-(trifluoromethyl) isonicotinamide]
1 | Cc1ccc(NC(=O)c2cnc(C(F)(F)F)cn2)cc1-c1cc(OCCO)nc(C2CCOCC2)c1 [Example 262, N-(3-(2-(2-hydroxyethoxy)-6-(tetrahydro-2H-pyran-4-yl)pyridin-4-yl)-4-methylphenyl)-5-(trifluoromethyl) pyrazine-2-carboxamide]
4.51 | CCOc1ncc(-c2cc(NC(=O)c3cc(C(F)(F)F)cc(C(C)(C)N)n3)ccc2C)cc1C1(O)COC1 [Example 147, 6-(2-aminopropan-2-yl)-N-(3-(6-ethoxy-5-(3-hydroxyoxetan-3-yl)pyridin-3-yl)-4-methylphenyl)-4-(trifluoromethyl)picolin-amide]
0.06 | CCOc1nnc(-c2cc(NC(=O)c3cc(C(F)(F)F)c(Cl)cn3)ccc2C)cc1C1CCOCC1 [Example 228, 5-chloro-N-(3-(6-ethoxy-5-(tetrahydro-2H-pyran-4-yl)pyridazin-3-yl)-4-methylphenyl)-4-(trifluoromethyl) picolinamide]

The remaining lines, values behind:

SMILES | IC50 [nM]
CCOc1nnc(-c2cc(NC(=O)c3cc(C(F)(F)F)c[nH]c3=O)ccc2C)cc1C1CCOCC1 [Example 226, N-(3-(6-ethoxy-5-(tetrahydro-2H-pyran-4-yl)pyridazin-3-yl)-4-methylphenyl)-2-oxo-5-(trifluoromethyl)-1,2-dihydropyridine-3-carboxamide] | 4
Cc1ncc(NC(=O)c2ccnc(C(F)(F)F)c2)cc1-c1cc(NCCO)nc(C2CCOCC2)c1 [Example 181, N-(2′-((2-hydroxyethyl)amino)-2-methyl-6′-(tetrahydro-2H-pyran-4-yl)-[3,4′-bipyridin]-5-yl)-2-(trifluoromethyl) isonicotinamide] | 0.393
CCOc1ncc(-c2cc(NC(=O)c3ccnc(C(C)(C)F)c3)cnc2C)cc1C1(C#N)CCOC1 (stereo not shown) [Example 170, N-(5′-(3-cyanotetrahydrofuran-3-yl)-6′-ethoxy-2-methyl-[3,3′-bipyridin]-5-yl)-2-(2-fluoropropan-2-yl) isonicotinamide] | 2
Cc1ccc(NC(=O)c2ccnc(C(C)(F)F)c2)cc1-c1cc2c(c(C3CCOCC3)c1)NC(=O)C(C)(CO)O2 (stereo not shown) [Example 191, 2-(1,1-difluoroethyl)-N-(3-(2-(hydroxymethyl)-2-methyl-3-oxo-5-(tetrahydro-2H-pyran-4-yl)-3,4-dihydro-2H-benzo [b][1,4]oxazin-7-yl)-4-methylphenyl) isonicotinamide] | 0.1
COC1(c2cc(-c3cc(NC(=O)c4cccc(C(F)(F)F)c4)cnc3C)cc(NCCO)n2)COC1 [Example 152, N-(2′-((2-hydroxyethyl)amino)-6′-(3-methoxyoxetan-3-yl)-2-methyl-[3,4′-bipyridin]-5-yl)-3-(trifluoromethyl)benzamide] | 0.08
Cc1ncc(NC(=O)c2cccc(C(F)(F)F)c2)cc1-c1cc(C2(F)COC2)c(=O)n(CCO)c1 [Example 46, N-(5′-(3-fluorooxetan-3-yl)-1′-(2-hydroxyethyl)-2-methyl-6′-oxo-1′,6′-dihydro-[3,3′-bipyridin]-5-yl)-3-(trifluoromethyl)benzamide] | 51.5
Cc1ccc(NC(=O)c2ccnc(C(C)(F)F)c2)cc1-c1cc(OCCO)nc(C2(F)COC2)c1 [Example 54, 2-(1,1-difluoroethyl)-N-(3-(2-(3-fluorooxetan-3-yl)-6-(2-hydroxyethoxy)pyridin-4-yl)-4-methylphenyl)isonicotin-amide] | 0.211
Cc1ccc(NC(=O)c2cc(C(F)(F)F)nc(N(C)C)n2)cc1-c1cc(OCCO)nc(C2CCOCC2)c1 [Example 257, 2-(dimethylamino)-N-(3-(2-(2-hydroxyethoxy)-6-(tetrahydro-2H-pyran-4-yl)pyridin-4-yl)-4-methylphenyl)-6-(trifluoromethyl) pyrimidine-4-carboxamide] | 1
Cc1ccc(NC(=O)c2cccc(C(F)(F)F)c2)cc1-c1cc(C2(O)COC2)cc(C2(F)COC2)c1 [Example 134, N-(3′-(3-fluorooxetan-3-yl)-5′-(3-hydroxyoxetan-3-yl)-6-methyl-[1,1′-biphenyl]-3-yl)-3-(trifluoromethyl)benzamide] | 0.566
COC1(c2cc(-c3cc(NC(=O)c4ccnc(C(C)(C)F)c4)cnc3C)cnc2OCCO)COC1 [Example 61, 2-(2-fluoropropan-2-yl)-N-(6′-(2-hydroxyethoxy)-5′-(3-methoxyoxetan-3-yl)-2-methyl-[3,3′-bipyridin]-5-yl)isonicotinamide] | 1.32
